The text below walks through data of PMC12652692, “Synthesis and In Vitro Anticancer Evaluation of Novel Phosphonium Derivatives of Chrysin” (International Journal of Molecular Sciences, 2025).

Series [1] deals with 60 human cancer cell lines. Put plainly: NCI60 one-dose screen, overall mean. Format: cell-based. The conditions noted are these: mean over all 60 cell lines, read-out: Mean growth percent. The protocol: The screening results are presented in the Supplementary Materials (Table S1), where the cytotoxicity was determined for the 10 µM concentration. […] The negative numbers indicate significant decreases in the cell number. […] Compared to the reference chrysin (2), all phosphonium hybrids (3a–h) had significant antiproliferative activities. […] At the same time, it should be noted that more than 60% average reduction was also obtained in the case of the other examined conjugates (3a–h).
A detailed description of the NCI screening procedures, including the one-dose and five-dose tests, can be found in the Supplementary Materials, on the website of NCI [39], and in our previous work.
A detailed description of the NCI screening procedures can also be found on the website of NCI [39], and in our […]
All candidates were examined at first at a single high dose (10 μM) in the full NCI60 cell panel. The value reported for the one-dose test is growth relative to the no-drug control and relative to the time zero number of cells. This made possible the disclosure of both growth inhibition (numbers between 0 and 100) and lethality (numbers less than 0). For example, a value of 100 means no growth inhibition. A value of 20 would mean 80% growth inhibition. A value of 0 means no net growth over the course of the analysis. A value of −20 would mean 20% lethality. A value of −100 means all cells are dead. […]
concentration levels. The human tumor cell lines of the cancer screening panel were grown in RPMI 1640 medium containing 5% fetal bovine serum and 2 mM l-glutamine. Characteristically, cells were injected in 96-well microtiter plates in 0.1 mL at plating densities ranging from 5000 to 40,000 cells/well, depending on the doubling time of individual cell lines. After cell inoculation, the microtiter plates were incubated at 37 °C, 5% carbon dioxide, 95% air, and 100% relative humidity for 24 hours before the addition of tested compounds. After 24 hours, 2 plates of each cell line were fixed in situ with Cl3COOH (TCA), to represent a measurement of the cell population for each cell line at the time of drug addition (tz). Tested compounds were solubilized in DMSO at 400-fold the desired final maximum test concentration and stored frozen before application. In the course of the drug addition, an aliquot of frozen concentrate was thawed and diluted to twice the desired final maximum test concentration with a complete medium containing 50 μg mL−1 gentamicin. Additional four, 10-fold or ½ log serial dilutions were produced to furnish a total of five drug concentrations plus control. Aliquots of 0.1 mL of these different drug dilutions were added to the appropriate microtiter wells already containing 0.1 mL of medium, resulting in the required final drug concentrations.
Following drug addition, the plates were incubated at 37 °C, 5% carbon dioxide, 95% air, and 100% relative humidity for an additional 48 hours. For adherent cells, the test was finished by the addition of cold Cl3COOH. Cells were fixed in situ by the addition of 50 μL of cold 50% (w/v) Cl3COOH, and incubated at 4 °C for 1 hour. The supernatant was discarded, and the plates were washed with H2O (5×) and dried in air. Sulforhodamine B (SRB) solution (0.1 mL) at 0.4% (w/v) in 1% CH3COOH was added to each well, and plates were incubated at RT for 10 min. After staining, the unbound dye was removed by washing five times with 1% CH3COOH, and the plates were dried in the air. The bound stain is afterward solubilized with a 10 mM trizma base, and the absorbance is read on an automated plate reader at λ = 515 nm. Utilizing the seven absorbance measurements [time zero (tz), control growth (c), and test growth in the presence of the drug at the five concentration levels (ti)], the percentage growth was determined at each of the drug concentration levels. Growth inhibition (%) was calculated as:
[(ti − tz)/(c − tz)] × 100, for concentrations where ti ≥ tz (1) […]

Series [2] concerns non-tumor CHO cells. Put plainly: CellTiter-Glo Luminescent Cell Viability Assay. Format: cell-based, Chinese hamster. The note with it: 48 h; for IC50: Cricetulus griseus, non-tumor CHO cells, read-out: Estimated IC50. The protocol:
(§1) Given their potent antiproliferative effects on tumor cells, two conjugates were selected for testing on non-tumor CHO cells to investigate their selectivity. […] Cell viability of non-tumor CHO cells was assessed using the CellTiter-Glo Luminescent Cell Viability Assay (Promega, Madison, WI, USA), following treatment with 3a and 3f. Stock solutions (10 mM in DMSO) were stored frozen until use. CHO cells were cultured in complete DMEM (low glucose, 1 g/L) supplemented with 10% fetal bovine serum, 1% GlutaMAX-I, 1% non-essential amino acids, and 0.1% penicillin–streptomycin. Cells were seeded into opaque 96-well plates (5000 cells/100 µL/well), with peripheral wells filled with sterile PBS to minimize edge effects. After overnight incubation (37 °C, 5% CO2), cells were treated with increasing concentrations of the compounds (10^−5, 10^−6, and 10^−7 M) diluted in complete DMEM. Untreated cells served as controls, and complete DMEM was used to determine background luminescence. DMSO controls corresponding to the solvent concentrations of each treatment condition were also included; no significant effect on cell viability was observed. After 48 h, CellTiter-Glo reagent was added, and luminescence was measured using an EnSpire AlphaLisa microplate reader (Perkin Elmer). Relative light unit (RLU) values were normalized to untreated controls (100% viability). Non-linear regression analysis was performed in GraphPad Prism 8.0.1 to estimate IC50 values by fitting sigmoidal dose–response curves (log[inhibitor] vs. normalized response, variable slope).

The nature of series [3]: CellTiter-Glo Luminescent Cell Viability Assay. Format: cell-based, Chinese hamster. The note with it: Chinese hamster, CHO cells (non-tumor), CHO cells, 10^−6 M. As for the experimental part:
as §1

Series [4] has as its system 60 human cancer cell lines. Details: method as in doi:10.3311/PPch.21919, PMID 34874114. The note with it: previous work ref 24, 26; cited from earlier work.

SMILES strings stand for the structures.

With `COc1ccc([P+](CCCCOc2cc(O)c3c(=O)cc(-c4ccccc4)oc3c2)(c2ccc(OC)cc2)c2ccc(OC)cc2)cc1` [3c], the activity at 10 µM in series [1] was -68.3%.
The same measure, in the same setting: for `Cc1ccccc1[P+](CCCCOc1cc(O)c2c(=O)cc(-c3ccccc3)oc2c1)(c1ccccc1C)c1ccccc1C` [3g] the value was -97.7%.
Consider `O=c1cc(-c2ccccc2)oc2cc(OCCCC[P+](c3ccccc3)(c3ccccc3)c3ccccc3)cc(O)c12` [3a], for which the activity at 10 µM in series [1] is -74.3%. Also, the cell viability entry in series [2] (CHO cells, 10^−6 M) was “minimally affected”. Besides, the IC50 in series [2] is 2.65 µM.
With `O=c1cc(-c2ccccc2)oc2cc(OCCCC[P+](C3CCCCC3)(C3CCCCC3)C3CCCCC3)cc(O)c12` [3e], the activity at 10 µM in series [1] is -76%.
`COc1c(C)cc([P+](CCCCOc2cc(O)c3c(=O)cc(-c4ccccc4)oc3c2)(c2cc(C)c(OC)c(C)c2)c2cc(C)c(OC)c(C)c2)cc1C` [3f]: in series [1], the activity at 10 µM was -63.4%. In addition, the IC50 in series [2] was 1.15 µM. The viability at 48 h in series [3] amounted to 60.2 ± 2.9%.
Consider `O=c1cc(-c2ccccc2)oc2cc(OCCCC[P+](c3ccccc3)(c3ccccc3)c3ccccn3)cc(O)c12` [3h], for which the activity at 10 µM in series [1] was -72.3%.
For `O=c1cc(-c2ccccc2)oc2cc(O)cc(O)c12` [compound 2, 5,7-dihydroxyflavone, reference compound], the activity at 10 µM in series [1] is 96.1%. Also, in series [4], the “antiproliferative effects (in words)” value is given as “does not exert remarkable antiproliferative effects”.
Regarding `O=c1cc(-c2ccccc2)oc2cc(OCCCC[P+](c3ccc(F)cc3)(c3ccc(F)cc3)c3ccc(F)cc3)cc(O)c12` [3d], the activity at 10 µM in series [1] was -69.5%.
As for `Cc1ccc([P+](CCCCOc2cc(O)c3c(=O)cc(-c4ccccc4)oc3c2)(c2ccc(C)cc2)c2ccc(C)cc2)cc1` [3b], in series [1], the activity at 10 µM is -69.9%.
